The record followed here is US11766447B2, “3′3′-cyclic dinucleotide analogue comprising a cyclopentanyl modified nucleotide as sting modulator” (INSTITUTE OF ORGANIC CHEMISTRY AND BIOCHEMISTRY ASCR, V.V.I., priority 2019, dated 2023).

Where two headings read alike, the source gives them in different places.

For test [1], the target named is T1, WT STING (Homo sapiens, UniProt Q86WV6, H232R). Briefly: Digitonin assay using 293T wtSTING-FL reporter cells. Format: cell-based. Details: host or cells: 293T (ATCC CRL-3216), stably transfected, with 4xISRE firefly luciferase reporter. Particulars: 293T wtSTING-FL cells, ISRE firefly luciferase; compounds in Digitonin buffer 30 minutes, then 5 hours; 8-point curve. The source says: Two complementary oligonucleotides of the sequence […] […] […] […] […] The oligonucleotides were mixed in equal molar amounts, hybridized, and cleaved by restriction endonucleases HindIII (cat. #. R0104S, NEB, Ipswich, USA) and BglII (cat. #R0144S, NEB, Ipswich, USA). Ultimately, they were ligated into plasmid pGL4.27 (cat. #E6651, Promega, Madison, USA) linearized with the same enzymes. As result the sequence with four ISRE sites was placed upstream of the minimum promoter of firefly luciferase reporter gene.
After 5 minutes incubation at room temperature (RT), 250 μL of the mixture was added dropwise to the cells in one well. Cells were incubated 36 hours at 37° C. with 5% CO2, and then detached with 0.05% Trypsin and 0.22 g/L EDTA (both cat. #L0941, Biowest, Riverside, USA).
Transfected cells were seeded onto poly-D-lysine coated six well plates at density 50,000 cells per 1 cm^2 in DMEM medium with high glucose containing 10% heat inactivated FBS, 30 μg/mL blasticidin (cat. #ant-b1-05, InvivoGen, San Diego, USA), 0.06 mg/ml Penicillin G and 0.1 mg/ml Streptomycin Sulfate (both cat. #. L0018, Biowest, Riverside, USA). The medium was replenished every 3-4 days until visible colonies of cells resistant to blasticidin were formed.
Blasticidin resistant cells stably expressing WT STING were further transfected with […] plasmid following the same procedure as described above. […] Homogeneous culture of stably double transfected cells was prepared by limiting dilution of cells in 96 well plates and wells with cells were selected that originated from a single cell.
The medium was removed next day and three fold serial dilutions of compounds in Digitonin buffer containing 50 mmol·l^−1 HEPES (cat. #H3375, Sigma Aldrich, Czech Republic) pH 7.0, 100 mmol·l^−1 KCl, 3 mmol·l^−1 MgCl2, 0.1 mmol·l^−1 DTT (cat. #D0632, Sigma Aldrich, Czech Republic), 85 mmol·l^−1 Sucrose (cat. #S7903, Sigma Aldrich, Czech Republic), 0.2% BSA (cat. #A2153, Sigma Aldrich, Czech Republic), 1 mmol·l^−1 ATP (cat. #A1852, Sigma Aldrich, Czech Republic), 0.1 mmol·l^−1 GTP (cat. #G8877, Sigma Aldrich, Czech Republic), and 10 μg/mL Digitonin A (cat. #D141, Sigma Aldrich, Czech Republic) were added to the cells. The buffer was removed after 30 minutes incubation at 37° C. with 5% CO2, the cells were washed once with 100 μl of cultivation medium, and 100 μl of medium was added to each well. The plates with cells were incubated for 5 hours at 37° C. with 5% CO2, 50 μl of the medium was removed and 30 μl of ONE-Glo™ Luciferase Assay System reagent (cat. #E6120, Promega, Madison, USA) was added to each well. Luminescence was read on Synergy H1 (Biotek, Winooski, USA). GraphPad Prism (La Jolla, USA) was used to calculate the 50% effective concentration ([…] from an 8-point dose-response curve.
Target sequence in this assay (Q86WV6 whole entry H232R): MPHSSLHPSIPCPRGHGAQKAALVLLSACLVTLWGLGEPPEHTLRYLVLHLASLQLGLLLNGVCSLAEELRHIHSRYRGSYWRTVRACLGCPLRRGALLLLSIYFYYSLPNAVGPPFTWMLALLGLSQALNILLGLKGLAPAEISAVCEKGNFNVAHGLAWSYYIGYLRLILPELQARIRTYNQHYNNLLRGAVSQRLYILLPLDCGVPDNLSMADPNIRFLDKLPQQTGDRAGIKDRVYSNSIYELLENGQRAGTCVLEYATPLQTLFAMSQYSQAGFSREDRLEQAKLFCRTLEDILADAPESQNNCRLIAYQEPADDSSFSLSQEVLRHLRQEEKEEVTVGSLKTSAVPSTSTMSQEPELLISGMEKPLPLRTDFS

A further test deals with T2, AQ STING (G230A-R293Q) (Homo sapiens, UniProt Q86WV6, G230A/H232R/R293Q).
T2 construct: 8xHis (N, cleaved yes); SUMO (N, cleaved yes); made in house; host or cells: E. coli Rosetta-gami B (DE3)
T2 sequence (Q86WV6 140-343 G230A/H232R/R293Q): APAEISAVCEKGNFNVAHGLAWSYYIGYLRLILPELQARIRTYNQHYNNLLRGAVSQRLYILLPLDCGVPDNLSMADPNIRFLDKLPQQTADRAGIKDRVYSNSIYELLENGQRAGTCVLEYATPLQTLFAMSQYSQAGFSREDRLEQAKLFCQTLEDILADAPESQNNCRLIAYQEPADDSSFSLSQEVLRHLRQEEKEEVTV
Briefly: Differential scanning fluorimetry (DSF) with AQ STING. As to conditions: thermal shift vs apoprotein; 150 μM CDN; truncated human AQ STING 0.1 mg/ml. In kind it is binding. How it is done:
(§1) Purified PCR products were cleaved with restriction enzymes BamHI (cat. #R0136S, NEB, Ipswich, USA) and NotI (cat. #R0189S, NEB, Ipswich, USA) and cloned into the pSUMO vector linearized with the identical enzymes.
(§2) DNase I (cat. #D5025, Sigma Aldrich, Czech Republic) and RNase A (cat. #R6513, Sigma Aldrich, Czech Republic) were added (final concentration 50 μg/ml) together with MgCl2 (final concentration 5 mmol·l^−1) to the homogenate and bacteria were lysed using French Press G-M™ High-Pressure Cell Press Homogenizer (1500 psi, 3 cycles). […] The resin was poured into a chromatography column, washed with 50 ml buffer A (50 mmol·l^−1 TrisCl (pH 8.0), 800 mmol·l^−1 NaCl, 3 mmol·l^−1 β-mercaptoethanol; 10% glycerol; 20 mmol·l^−1 imidazol) and 8-His-SUMO tagged STING proteins were eluted with 15 ml buffer A containing 300 mmol·l^−1 imidazole. […] Proteins were concentrated with Amicon® Ultra-15 10 K device (cat. #UFC901008, Merck Millipore, Billerica, USA) and flash frozen in liquid N2.
(§3) 20 μL solutions of the reaction mixtures were pipetted in triplicates into 96 well optical reaction plates and thermal denaturation of samples were performed on real time PCR cycler (LightCycler® 480 Instrument II—Roche, Basel, Switzerland). The first derivative of the thermal denaturation curves was performed to calculate denaturing temperatures of STING-CDN complexes and STING apoproteins. The thermal shift for each CDN was calculated by subtracting the average denaturing temperature of STING apoprotein from the average denaturing temperature of STING CDN complex.
In general terms: Differential scanning fluorimetry follows unfolding on heating by fluorescence.

The target of test [2] is T1, WT STING. Briefly: Differential scanning fluorimetry (DSF) with WT STING. Format: binding. Details: 8xHis (N, cleaved yes); SUMO (N, cleaved yes); made in house; host or cells: E. coli Rosetta-gami B (DE3). As to conditions: thermal shift vs apoprotein; 150 μM CDN; truncated human WT STING 0.1 mg/ml. The protocol: as §1, §2, §3
Target sequence in this assay (Q86WV6 140-343 H232R): as the sequence (Q86WV6 140-343 G230A/H232R/R293Q) above, with A91G, Q154R counted along it
Test [3] relates to peripheral blood mononuclear cells (PBMC). Kind of test: Peripheral blood mononuclear cell (PBMC) assay. In kind it is cell-based. Particulars: 1 h with compounds, washed, 15 hour incubation, average of one to four donors. How it is done: Selected compounds were tested in an in vitro peripheral blood mononuclear cell (PBMC) assay. […] Serially diluted tested compounds were added to wells in 50 μl of cultivation medium and cell were incubated with compounds for 1 h at 37° C. with 5% CO2. Plates with cells were then spun 500 g for 5 minutes and medium was removed. Cells were washed twice with the cell culture medium by the use of centrifugation and gently resuspended in 100 μl medium without compounds. After 15 hour incubation at 37° C. with 5% CO2, the cell culture medium was collected and the levels of interferon-alpha (INF-α), interferon-gamma (INF-γ) and tumor necrosis factor-alpha (TNF-α) were determined with ProcartaPlex Assays (ThermoFisher, Waltham, USA) and MAGPIX System (Merck KGaA, Darmstadt, Germany). […] Values reported are an average of runs from one to four donors.

What is called EC50 is the concentration needed to bring the measured effect to its halfway point. Regarding `Nc1ncnc2c1ncn2[C@@H]1C[C@@H]2COP(=O)(S)OC3C(F)[C@H](n4cnc5c(N)ncnc54)O[C@@H]3COP(=O)(S)OC2C1F` (single isomer, unassigned) [Compound 102c], the EC50 on WT STING [1] was determined as 10 nM.
As to `Nc1nc2c(ncn2[C@@H]2C[C@@H]3COP(=O)(O)OC4C(F)[C@H](n5cnc6c(N)ncnc65)O[C@@H]4COP(=O)(O)OC3C2O)c(=O)[nH]1` (single isomer, unassigned) [Compound 103], the “DSF ΔTm (° C.) AQ STING” value at AQ STING (G230A-R293Q) worked out at 16.6 °C. Also, the “DSF ΔTm (° C.) WT STING” value on WT STING [2] was found to be 7.6 °C. Moreover, on WT STING [1], the EC50 worked out at 10 nM.
Regarding `Nc1nc2c(ncn2[C@@H]2C[C@@H]3COP(=O)(O)OC4C(F)[C@H](n5cnc6c(N)ncnc65)O[C@@H]4COP(=O)(O)OC3C2O)c(=O)[nH]1` (single isomer, unassigned) [Compound 105], the “DSF ΔTm (° C.) AQ STING” value at AQ STING (G230A-R293Q) amounted to 7.0 °C. The “DSF ΔTm (° C.) WT STING” value on WT STING [2] stood at 0.8 °C. Also, the EC50 at WT STING [1] amounted to 1600 nM.
A word on the ΔTm: it is the change in melting temperature against a reference sample. Take `Nc1nc2c(ncn2[C@@H]2O[C@@H]3COP(=O)(O)OC4C(O)[C@H](n5cnc6c(N)ncnc65)C[C@@H]4COP(=O)(O)OC3C2F)c(=O)[nH]1` (single isomer, unassigned) [Compound 109]: the ΔTm at 150 µM on AQ STING (G230A-R293Q) came out at 18.5 °C. Also, the “DSF ΔTm (° C.) WT STING” value at WT STING [2] came to 8.9 °C. Besides, the EC50 on WT STING [1] amounted to 10 nM.
In the case of `Nc1nc2c(ncn2[C@@H]2O[C@@H]3COP(=O)(O)OC4C(O)[C@H](n5cnc6c(N)ncnc65)C[C@@H]4COP(=O)(O)OC3C2F)c(=O)[nH]1` (single isomer, unassigned) [Compound 111], the “DSF ΔTm (° C.) AQ STING” value on AQ STING (G230A-R293Q) turned out to be 13.7 °C. The “DSF ΔTm (° C.) WT STING” value on WT STING [2] turned out to be 4.1 °C. Also, the EC50 at WT STING [1] was found to be 70 nM.
Take `Nc1ncnc2c1ncn2[C@@H]1C[C@@H]2COP(=O)(S)O[C@@H]3[C@@H](COP(=O)(S)O[C@H]2[C@H]1F)C[C@@H](n1cnc2c(N)ncnc21)[C@@H]3F` (single isomer, unassigned) [Compound 128a]: the ΔTm at 150 µM at AQ STING (G230A-R293Q) stood at 14.8 °C; at WT STING [2], 9.6 °C. In addition, the EC50 at WT STING [1] was 10 nM.
In the case of `Nc1nc2c(ncn2[C@H]2CC3OP(=O)(S)OC[C@H]4O[C@@H](n5cnc6c(N)ncnc65)C(F)C4OP(=O)(S)OC[C@H]3C2)c(=O)[nH]1` (single isomer, unassigned) [Compound 129a], the values for the ΔTm at 150 µM on AQ STING (G230A-R293Q) and on WT STING [2] were 14 °C and 6.4 °C, respectively. The EC50 at WT STING [1] was 100 nM.
Take `Nc1nc2c(ncn2[C@H]2CC3OP(=O)(S)OC[C@H]4O[C@@H](n5cnc6c(N)ncnc65)C(F)C4OP(=O)(S)OC[C@H]3C2)c(=O)[nH]1` (single isomer, unassigned) [Compound 129b]: on AQ STING (G230A-R293Q), the “DSF ΔTm (° C.) AQ STING” value was found to be 13.2 °C. Moreover, the “DSF ΔTm (° C.) WT STING” value on WT STING [2] was 7.0 °C. Besides, the EC50 at WT STING [1] is 200 nM.
As for `Nc1nc2c(ncn2[C@@H]2C[C@@H]3COP(=O)(S)O[C@H]4[C@@H](F)[C@H](n5cnc6c(N)ncnc65)O[C@@H]4COP(=O)(S)O[C@H]3C2)c(=O)[nH]1` (single isomer, unassigned) [Compound 129c], the ΔTm at 150 µM on AQ STING (G230A-R293Q) was determined as 13.2 °C. For the same molecule, the “DSF ΔTm (° C.) WT STING” value on WT STING [2] was found to be 6.4 °C. Also, the EC50 on WT STING [1] amounted to 400 nM.
Turning to `Nc1nc2c(ncn2[C@@H]2O[C@@H]3COP(=O)(S)O[C@@H]4[C@@H](COP(=O)(S)O[C@H]3[C@H]2F)C[C@@H](n2cnc3c(N)ncnc32)[C@@H]4F)c(=O)[nH]1` (single isomer, unassigned) [Compound 132a], the values for the ΔTm at 150 µM at AQ STING (G230A-R293Q) and at WT STING [2] were 19.9 °C and 12.9 °C, respectively. Besides, at WT STING [1], the EC50 was 8 nM.
For the molecule `Nc1ncnc2c1ncn2[C@@H]1C[C@@H]2COP(=O)(O)OC3C(F)[C@H](n4cnc5c(N)ncnc54)O[C@@H]3COP(=O)(S)OC2C1F` (single isomer, unassigned) [Compound 141a], the “DSF ΔTm (° C.) AQ STING” value on AQ STING (G230A-R293Q) is 3.9 °C. The “DSF ΔTm (° C.) WT STING” value at WT STING [2] is 0.3 °C. Further, the 50% effective concentration (EC50) at WT STING [1] came to 3000 nM.
Regarding `Nc1ncnc2c1ncn2[C@@H]1C[C@@H]2COP(=O)(S)O[C@H]3C[C@H](n4cnc5c(N)ncnc54)O[C@@H]3COP(=O)(S)O[C@H]2[C@H]1F` (single isomer, unassigned) [Compound 142a], at WT STING [1], the EC50 was determined as 30 nM.
In the case of `CC(C)(C)C(=O)OCSP1(=O)OC[C@H]2O[C@@H](n3cnc4c(=O)[nH]c(N)nc43)[C@H](F)[C@@H]2OP(=O)(SCOC(=O)C(C)(C)C)OC[C@H]2C[C@@H](n3cnc4c(N)ncnc43)[C@H](F)[C@@H]2O1` (single isomer, unassigned) [Compound 150a], the EC50 was found to be 1 µM in test [3] (interferon-alpha level, read-out: PBMC EC50 (μM) IFN-α); 0.7 µM in test [3] (interferon-gamma level, read-out: PBMC EC50 (μM) IFN-γ); 0.7 µM in test [3] (tumor necrosis factor-alpha level, read-out: PBMC EC50 (μM) TNF-α).
On to `COC1C2OP(=O)(O)OC[C@H]3C[C@@H](n4cnc5c(=O)[nH]c(N)nc54)C(O)C3OP(=O)(O)OC[C@H]2O[C@H]1n1cnc2c(N)ncnc21` (stereo partly drawn) [Compound 118, (6R,8R,15R,17R)-17-(2-amino-6-oxo-6,9-dihydro-1H-purin-9-yl)-8-(6-amino-9H-purin-9-yl)-3,12,18-trihydroxy-9-methoxy-2,4,7,11,13-pentaoxa-3λ^5,12λ^5-diphosphatricyclo[13.3.0.0^6,10]octadecane-3,12-dione], for which the ΔTm at 150 µM stood at 1.5 °C at AQ STING (G230A-R293Q) and 0.5 °C on WT STING [2].
